Earlier results as cited in US9072749B2, “Treatment of age-related macular degeneration” (priority 2007, dated 2015).
Like-named read-outs stand apart in the source and are kept apart here.

Columns and labels:
[1] = tested on: choroidal neovascularization; settings: in vivo
dogs = settings: oral dosing in dogs
[2] = oral dosing in dogs
D1/D5 receptor = settings: anesthetized rabbits

In the case of `CC1=C(/C=C/C(C)=C/C=C/C(C)=C/C=C/C=C(C)/C=C/C=C(C)/C=C/C2=C(C)C(=O)C(O)CC2(C)C)C(C)(C)CC(O)C1=O` (stereo not shown) [Astaxanthin], the choroidal neovascularization [1] is given as “inhibit choroidal neovascularization”.
In the case of `Oc1ccc(C2CNCCc3c2cc(O)c(O)c3Cl)cc1` (stereo not shown) [Fenoldopam], the “duration of drug blood level and increase in renal blood flow” value (dogs; FIGS. 2a and 2b) is listed as “relatively short duration” and the “plasma fenoldopam (drug blood) level” value [2] is listed as “rapidly gives high drug blood level”.
For `CCNC(=O)Oc1ccc([C@H]2CNCCc3c2cc(OC(=O)NCC)c(OC(=O)NCC)c3Cl)cc1` [SKF 10508], the “time for which the increase in renal blood flow is sustained” value (dogs; FIGS. 3A and 3B) is listed as “greater than 6 hours”, the “plasma fenoldopam (drug blood) level” value [2] is listed as “more gradual increase of drug blood level” and the “plasma fenoldopam (drug blood) level” value ([2]; listed as SK&F 105058) is listed as “release fenoldopam slowly after oral absorption”.
In the case of `NCCc1ccc(O)c(O)c1` [dopamine], the choroidal vasodilation (D1/D5 receptor) is listed as “caused choroidal vasodilation”.
